Measured values from the NIST ThermoML archive (doi:10.1021/je5010643).

Assay: refractive index (Na D-line) (dimensionless); xn = mol fraction of the nth substance listed
Conditions: 101.32 kPa, Liquid, Standard Abbe refractometry

CC(C)C(=O)O [2-methylpropanoic acid] + C1COCCO1
refractive index
Conditions	x2 = 0	x2 = 0.1	x2 = 0.2	x2 = 0.3	x2 = 0.4	x2 = 0.5	x2 = 0.6	x2 = 0.7	x2 = 0.8	x2 = 0.9
295.15 K	1.3919	1.3955	1.3988	1.4021	1.4052	1.4082	1.411	1.4137	1.4161	1.4185
298.15 K	1.3907	1.3942	1.3974	1.4007	1.4038	1.4068	1.4096	1.4122	1.4146	1.4171
301.15 K	1.3895	1.3929	1.3961	1.3993	1.4024	1.4054	1.4082	1.4107	1.4132	1.4156
304.15 K	1.3883	1.3916	1.3948	1.3979	1.401	1.4039	1.4067	1.4093	1.4117	1.4141
307.15 K	1.3872	1.3904	1.3936	1.3967	1.3997	1.4026	1.4054	1.4079	1.4103	1.4127
310.15 K	1.386	1.3891	1.3923	1.3953	1.3983	1.4011	1.4038	1.4063	1.4087	1.4112
313.15 K	1.3849	1.3879	1.391	1.3941	1.397	1.3998	1.4025	1.4049	1.4073	1.4098
